Read-outs that look alike come from different tables or passages of the source.
Legend:
[1] = system: FGFR1 in H520 cells (phospho-ERK1/2); assay: Drug washout Western blot assay, H520 cells; type: cell-based; details: for reversible or irreversible inhibition of FGFR1 in cells / concentration required to suppress FGFR1 signalling through phospho-ERK1/2: 2 hours exposure; for reversible or irreversible inhibition of FGFR1 in cells: 100, 300 and 600 nM, with and without washout; for concentration required to suppress FGFR1 signalling through phospho-ERK1/2: tested at 100, 300 and 600 nM; for phospho-ERK1/2 after extensive drug washout: washout prior to FGF-stimulation
SW780 cells = assay: Oxic and anoxic anti-proliferative activity of the prodrugs; type: cell-based; details: Homo sapiens, SW780; oxic conditions; read-out: Cellular Anti-proliferative IC50, SW780, Oxic
[2] = Pulse radiolysis of prodrugs; type: physicochemical
H520 cells = assay: Oxic and anoxic anti-proliferative activity of the prodrugs; details: read-out: Cellular Anti-proliferative IC50, H520, Oxic; oxic conditions
SUM52 cells = assay: as above; details: read-out: Cellular Anti-proliferative IC50, SUM52, Oxic; oxic conditions
panel of 456 kinases = assay: Biochemical kinase selectivity screening (DiscoveRx KINOMEscan); type: binding
[3] = system: FGFR1-amplified H520 non-small cell lung cancer cells; assay: Cell proliferation assay (SRB); type: cell-based; details: Homo sapiens, NCI-H520, 168 h, read-out: Cellular Anti-proliferative IC50, H520
[4] = system: FGFR2-amplified SUM52 breast cancer cells; assay: Cell proliferation assay (SRB); type: cell-based; details: SUM52, 120 h, read-out: Cellular Anti-proliferative IC50, SUM52, 5 days drug exposure
[5] = system: FGFR3-amplified SW780 bladder cancer cells; assay: Cell proliferation assay (SRB); details: Homo sapiens, SW780, 120 h
FGFR1 = target: T1, FGFR1 (Homo sapiens, UniProt P11362); assay: Isolated enzyme FRET-based Z-Lyte kinase inhibition assay; type: biochemical; details: means from 3 independent experiments; read-out: Isolate Enzyme Inhibition IC50, FGFR1
T1 construct: purchased Invitrogen
T1 sequence (P11362 22-822): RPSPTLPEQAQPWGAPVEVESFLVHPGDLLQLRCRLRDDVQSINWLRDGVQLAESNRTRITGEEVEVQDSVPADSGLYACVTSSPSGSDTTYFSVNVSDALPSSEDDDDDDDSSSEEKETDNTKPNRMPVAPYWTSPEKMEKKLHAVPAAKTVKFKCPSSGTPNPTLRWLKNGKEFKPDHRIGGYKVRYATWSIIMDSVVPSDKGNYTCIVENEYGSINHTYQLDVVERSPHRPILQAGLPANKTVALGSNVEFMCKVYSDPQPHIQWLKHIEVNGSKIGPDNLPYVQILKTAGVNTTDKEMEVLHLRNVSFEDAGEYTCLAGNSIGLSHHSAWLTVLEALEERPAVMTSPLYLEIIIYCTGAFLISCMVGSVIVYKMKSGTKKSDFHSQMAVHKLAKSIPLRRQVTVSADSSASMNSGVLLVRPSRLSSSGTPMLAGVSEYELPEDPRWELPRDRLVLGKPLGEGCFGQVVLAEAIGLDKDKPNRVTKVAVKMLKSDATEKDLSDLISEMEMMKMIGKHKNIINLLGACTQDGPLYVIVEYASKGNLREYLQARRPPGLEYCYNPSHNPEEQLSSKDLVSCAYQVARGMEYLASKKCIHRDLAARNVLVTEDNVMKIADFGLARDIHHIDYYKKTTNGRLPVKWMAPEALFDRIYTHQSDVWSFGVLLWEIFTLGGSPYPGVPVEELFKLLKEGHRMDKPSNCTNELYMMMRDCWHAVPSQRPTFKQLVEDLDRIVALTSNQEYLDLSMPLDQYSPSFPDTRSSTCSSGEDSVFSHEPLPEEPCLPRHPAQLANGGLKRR
Protocol: (§1) FGFR1-4 and the Z-Lyte Kinase Assay Kit were purchased from Invitrogen. The concentration gradients from 5.1×10^−11 to 1.0×10^−6 mol/L were used for all the test compounds. The experiments were performed according to the instructions of the manufacturer.
(§2) FGFR1-4 isolated enzyme activity was determined using the FRET-based Z-Lyte kinase inhibition assay. The data are the means from 3 independent experiments.

FGFR2 = target: T2, FGFR2 (Homo sapiens, UniProt P21802); assay: as above; type: biochemical; details: means from 3 independent experiments; read-out: Isolate Enzyme Inhibition IC50, FGFR2
T2 construct: purchased Invitrogen
T2 sequence (P21802 22-821): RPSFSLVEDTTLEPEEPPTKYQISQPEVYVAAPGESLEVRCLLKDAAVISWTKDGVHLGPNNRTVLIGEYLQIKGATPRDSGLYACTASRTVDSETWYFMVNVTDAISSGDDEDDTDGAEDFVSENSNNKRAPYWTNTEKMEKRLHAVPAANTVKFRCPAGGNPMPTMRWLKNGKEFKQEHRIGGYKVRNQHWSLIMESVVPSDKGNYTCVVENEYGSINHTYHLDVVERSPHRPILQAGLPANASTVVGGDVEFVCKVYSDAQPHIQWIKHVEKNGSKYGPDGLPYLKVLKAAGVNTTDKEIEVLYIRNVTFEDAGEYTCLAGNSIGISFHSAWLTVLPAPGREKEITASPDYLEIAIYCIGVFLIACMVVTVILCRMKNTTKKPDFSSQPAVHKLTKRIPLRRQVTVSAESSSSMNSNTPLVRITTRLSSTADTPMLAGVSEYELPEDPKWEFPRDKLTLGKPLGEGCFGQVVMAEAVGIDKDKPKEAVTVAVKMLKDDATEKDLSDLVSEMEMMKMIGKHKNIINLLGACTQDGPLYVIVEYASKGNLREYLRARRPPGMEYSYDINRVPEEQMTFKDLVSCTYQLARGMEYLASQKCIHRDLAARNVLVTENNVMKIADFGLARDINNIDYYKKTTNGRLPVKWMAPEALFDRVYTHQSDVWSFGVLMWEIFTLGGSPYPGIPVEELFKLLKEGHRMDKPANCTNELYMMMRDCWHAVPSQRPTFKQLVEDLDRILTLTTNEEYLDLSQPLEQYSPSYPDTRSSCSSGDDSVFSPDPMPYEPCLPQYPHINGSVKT
Protocol: as §1, §2

FGFR3 = target: T3, FGFR3 (Homo sapiens, UniProt P22607); assay: as above; type: biochemical; details: means from 3 independent experiments; read-out: Isolate Enzyme Inhibition IC50, FGFR3
T3 construct: purchased Invitrogen
T3 sequence (P22607 23-806): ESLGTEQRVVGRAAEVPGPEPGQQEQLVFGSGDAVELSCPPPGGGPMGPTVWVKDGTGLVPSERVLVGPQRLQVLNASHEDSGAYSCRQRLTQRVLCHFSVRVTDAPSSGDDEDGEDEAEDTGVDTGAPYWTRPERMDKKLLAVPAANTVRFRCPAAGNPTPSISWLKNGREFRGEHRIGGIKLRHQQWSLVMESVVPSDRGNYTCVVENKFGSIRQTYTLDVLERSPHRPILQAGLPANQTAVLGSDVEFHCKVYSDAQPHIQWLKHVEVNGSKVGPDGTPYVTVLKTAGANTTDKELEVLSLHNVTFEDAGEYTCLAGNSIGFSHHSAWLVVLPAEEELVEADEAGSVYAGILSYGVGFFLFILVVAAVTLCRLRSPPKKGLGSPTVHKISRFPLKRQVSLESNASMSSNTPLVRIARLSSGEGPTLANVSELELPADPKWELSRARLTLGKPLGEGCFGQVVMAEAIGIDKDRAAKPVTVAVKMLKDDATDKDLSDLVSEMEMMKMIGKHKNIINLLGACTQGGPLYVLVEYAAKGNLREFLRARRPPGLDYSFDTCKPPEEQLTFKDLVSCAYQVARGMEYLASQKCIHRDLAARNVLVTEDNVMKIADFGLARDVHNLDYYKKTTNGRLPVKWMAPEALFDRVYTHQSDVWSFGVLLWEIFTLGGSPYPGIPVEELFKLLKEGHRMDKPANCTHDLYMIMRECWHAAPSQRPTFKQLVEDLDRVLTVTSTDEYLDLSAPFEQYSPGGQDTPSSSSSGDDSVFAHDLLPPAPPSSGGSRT
Protocol: as §1, §2

FGFR4 = target: T4, FGFR4 (Homo sapiens, UniProt P22455); assay: as above; type: biochemical; details: means from 3 independent experiments; read-out: Isolate Enzyme Inhibition IC50, FGFR4
T4 construct: purchased Invitrogen
T4 sequence (P22455 22-802): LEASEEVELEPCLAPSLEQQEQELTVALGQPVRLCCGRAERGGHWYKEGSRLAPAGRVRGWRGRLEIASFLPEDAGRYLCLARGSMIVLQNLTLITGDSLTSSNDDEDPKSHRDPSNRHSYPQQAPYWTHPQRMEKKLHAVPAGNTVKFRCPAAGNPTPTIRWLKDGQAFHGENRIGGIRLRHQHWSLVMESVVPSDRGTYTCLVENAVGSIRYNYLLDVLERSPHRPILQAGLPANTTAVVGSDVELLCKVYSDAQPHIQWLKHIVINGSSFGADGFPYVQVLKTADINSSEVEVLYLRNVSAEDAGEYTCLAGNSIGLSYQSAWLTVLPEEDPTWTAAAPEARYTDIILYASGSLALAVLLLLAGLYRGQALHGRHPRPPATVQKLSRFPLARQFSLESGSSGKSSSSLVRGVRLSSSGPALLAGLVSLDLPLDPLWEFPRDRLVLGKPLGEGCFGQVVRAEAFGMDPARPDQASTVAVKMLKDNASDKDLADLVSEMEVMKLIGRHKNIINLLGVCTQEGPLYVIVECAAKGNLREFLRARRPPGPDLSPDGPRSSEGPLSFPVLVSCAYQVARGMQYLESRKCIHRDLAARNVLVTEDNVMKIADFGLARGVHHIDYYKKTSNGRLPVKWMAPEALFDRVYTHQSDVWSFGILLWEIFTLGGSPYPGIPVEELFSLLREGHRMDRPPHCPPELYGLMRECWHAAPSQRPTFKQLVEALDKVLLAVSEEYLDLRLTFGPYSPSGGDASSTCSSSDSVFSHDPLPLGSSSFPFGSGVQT
Protocol: as §1, §2

[6] = system: FGFR4-amplified Hep3B hepatocellular carcinoma cells; assay: Cell proliferation assay (SRB); type: cell-based; details: Homo sapiens, Hep3B; read-out: Cellular Anti-proliferative IC50, Hep3B
[7] = system: FGFR2 in SUM52 cells (phospho-ERK1/2); assay: Drug washout Western blot assay, SUM52 cells; type: cell-based; details: for phospho-ERK1/2 after extensive drug washout: washout prior to FGF-stimulation
[8] = system: FGFR3 in SW780 cells (phospho-ERK1/2); assay: Drug washout Western blot assay, SW780 cells; type: cell-based; details: for phospho-ERK1/2 after extensive drug washout: washout prior to FGF-stimulation
[9] = target: T5, recombinant FGFR1 (C584S) kinase domain (Homo sapiens, UniProt P11362, C584S); assay: FGFR1 (C584S) covalent binding protein mass spectrometry assay; details: protein:inhibitor 1:10, 37° C.
T5 construct: made in house; host or cells: pETDuet vector, IPTG induction in Terrific Broth (bacterial)
T5 sequence (P11362 with tags, fused parts or gaps C584S): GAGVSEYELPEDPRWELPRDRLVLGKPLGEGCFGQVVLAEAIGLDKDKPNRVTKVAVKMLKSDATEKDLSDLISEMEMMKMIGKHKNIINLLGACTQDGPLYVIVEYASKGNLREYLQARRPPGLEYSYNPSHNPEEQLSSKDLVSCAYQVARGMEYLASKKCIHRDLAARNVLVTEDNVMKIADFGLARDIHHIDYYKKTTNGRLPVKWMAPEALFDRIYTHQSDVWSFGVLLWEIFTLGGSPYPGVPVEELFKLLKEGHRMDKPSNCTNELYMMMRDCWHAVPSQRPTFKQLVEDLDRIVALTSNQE
Protocol: The previously cloned C488A/C584S FGFR1 construct was modified by site-directed mutagenesis to provide a gene encoding the C584S FGFR1 kinase domain with the cysteine at amino acid C488 reinstated. Expression and purification of this protein followed the protocol described above but with the addition of 10% glycerol to all buffers and a change of buffer pH to a value of 8.5. Protein for mass spectrometry was concentrated to ˜40 mg/ml and was mixed 1:1 (v/v) with glycerol, and then frozen at −20° C. or flash cooled in liquid nitrogen and stored at −80° C. until needed.
Protein samples were buffer exchanged to remove glycerol (the final buffer comprised 20 mM Tris-HCl pH 8.5, 10% (v/v) glycerol, 20 mM NaCl, 5 mM EDTA, 2 mM TCEP) and were mixed with each inhibitor at 1:10 molar ratio (protein:inhibitor). Final protein concentration was 20 μM. […] Samples were mixed with 90 μL of 0.1% formic acid to quench the reaction followed by flash cooling in liquid nitrogen. Samples were stored at −80° C. until needed. All experiments were carried out in triplicate.
Samples were subjected to liquid chromatography mass spectrometry (LC-MS) to show mass changes attributable to irreversible inhibition. Mass spectrometry experiments were performed at the University of Auckland Mass Spectrometry Center using an electropspray QSTAR® XL ESI quadrupole Time-of-Flight (QToF) MS system (Applied Biosystems) operated in positive ionization mode. The instrument was calibrated using Renin Substrate Standard (SCIEX), over the m/z range 100-2000. Protein/inhibitor samples were thawed and 2 μL volumes injected into a liquid chromatography (LC) BIOshell™ A400 Protein C4 HPLC column (10 cm×2.1 mm, 3.4 μm) attached to the mass spectrometer. […] Following elution, samples were directly injected into the mass spectrometer for separation and mass analysis. Mass spectrometry data were processed and analysed using the PeakView™ 2.1 software and the Bio Tool Kit plug-in (SCIEX) and covered an m/z range of 330-1600. Deconvolution calculations allowed visualisation of intact mass protein peaks and allowed peak area measurement to assess the percentage of protein covalently modified by each inhibitor at each time point. Data was plotted using GraphPad Prism 7 (GraphPad).

## COc1cc(OC)c(Cl)c(N2Cc3cnc(NC(C)C)nc3N(C3CCN(C(=O)/C=C/C[N+](C)(C)Cc4c([N+](=O)[O-])ncn4C)CC3)C2=O)c1Cl.[Br-] [Compound 202, (E)-4-(4-(3-(2,6-dichloro-3,5-dimethoxyphenyl)-7-(isopropylamino)-2-oxo-3,4-dihydropyrimido[4,5-d]pyrimidin-1(2H)-yl)piperidin-1-yl)-N,N-dimethyl-N-((1-methyl-4-nitro-1H-imidazol-5-yl)methyl)-4-oxobut-2-en-1-aminium bromide]
[1]; H520
  reversible or irreversible inhibition of FGFR1 in cells: reversible inhibitors
SW780 cells
  IC50: 2120 nM
[2]
  first order rate of fragmentation kfrag: 26 s⁻¹
other
  melting point: 171 to 174 °C
H520 cells
  IC50: 1730 nM
SUM52 cells
  IC50: 737 nM

## CNc1ncc2c(n1)N([C@H]1CCN(C(=O)/C=C/C[N+](C)(C)Cc3c([N+](=O)[O-])ncn3C)C1)C(=O)N(c1c(Cl)c(OC)cc(OC)c1Cl)C2.[Br-] [Compound 200, (S,E)-4-(3-(3-(2,6-dichloro-3,5-dimethoxyphenyl)-7-(methylamino)-2-oxo-3,4-dihydropyrimido[4,5-d]pyrimidin-1(2H)-yl)pyrrolidin-1-yl)-N,N-dimethyl-N-((1-methyl-4-nitro-1H-imidazol-5-yl)methyl)-4-oxobut-2-en-1-aminium bromide]
[1]; H520
  reversible or irreversible inhibition of FGFR1 in cells: reversible inhibitor
  concentration required to suppress FGFR1 signalling through phospho-ERK1/2: 300 nM
SW780 cells
  IC50: 2640 nM
[2]
  first order rate of fragmentation kfrag: 32 s⁻¹
other
  melting point: 195 to 198 °C
H520 cells
  IC50: 3660 nM
SUM52 cells
  IC50: 229 nM

## COc1cc(OC)c(Cl)c(N2Cc3cnc(Nc4ccc(F)cc4)nc3N(C3CCN(C(=O)/C=C/CN(C)C)CC3)C2=O)c1Cl [Compound 120, (E)-3-(2,6-dichloro-3,5-dimethoxyphenyl)-1-(1-(4-(dimethylamino)but-2-enoyl)piperidin-4-yl)-7-((4-fluorophenyl)amino)-3,4-dihydropyrimido[4,5-d]pyrimidin-2(1H)-one]
Panel of 456 kinases; 1 uM, 33/403 kinases
  share of the non-mutant kinases studied with Percent Control <35: 8.2%
Panel of 456 kinases; panel of 456 kinases
  selectivity for the FGFR family: excellent selectivity
Panel of 456 kinases; set concentration of 1 uM
  S(35) selectivity score: 0.082
[3]
  IC50: 8.7 nM
[4]
  IC50: 0.8 nM
[1]; H520
  reversible or irreversible inhibition of FGFR1 in cells: potent, irreversible inhibition
[5]; read-out: Cellular Anti-proliferative IC50, SW780, 5 days drug exposure
  IC50: 16 nM

## COc1cc(OC)c(Cl)c(N2Cc3cnc(NC(C)C)nc3N([C@H]3CCN(C(=O)/C=C/CN(C)C)C3)C2=O)c1Cl [Compound 104, (S,E)-3-(2,6-dichloro-3,5-dimethoxyphenyl)-1-(1-(4-(dimethylamino)but-2-enoyl)pyrrolidin-3-yl)-7-(isopropylamino)-3,4-dihydropyrimido[4,5-d]pyrimidin-2(1H)-one]
FGFR1
  IC50: 1.1 nM
FGFR2
  IC50: 23 nM
FGFR3
  IC50: 35 nM
FGFR4
  IC50: 906 nM
[3]
  IC50: 17 nM
[4]
  IC50: 1.4 nM
[6]
  IC50: 12 nM
[1]; H520 (FGFR1), 30 minute exposure
  exposure concentration for irreversible inhibition (fully covalently bind the target) in cells: 1000 nM
[1]; H520, 100 nM, 30 min, then FGF-stimulation
  inhibition of phosphorylation of ERK1/2, no washout: complete inhibition
[1]; H520, 100 nM, 30 min
  phospho-ERK1/2 after extensive drug washout: restoration
[1]; H520, 1000 nM, 30 min
  phospho-ERK1/2 after extensive drug washout: essential full inhibition
[1]; H520
  reversible or irreversible inhibition of FGFR1 in cells: potent, irreversible inhibition
  concentration required to suppress FGFR1 signalling through phospho-ERK1/2: 300 nM
[7]; SUM52 (FGFR2), 30 minute exposure
  exposure concentration for irreversible inhibition (fully covalently bind the target) in cells: 1000 nM
[7]; SUM52, 100 nM, 30 min, then FGF-stimulation
  inhibition of phosphorylation of ERK1/2, no washout: complete inhibition
[7]; SUM52, 100 nM, 30 min
  phospho-ERK1/2 after extensive drug washout: restoration
[7]; SUM52, 1000 nM, 30 min
  phospho-ERK1/2 after extensive drug washout: essential full inhibition
[8]; SW780 (FGFR3), 30 minute exposure
  exposure concentration for irreversible inhibition (fully covalently bind the target) in cells: 1000 nM
[8]; SW780, 100 nM, 30 min, then FGF-stimulation
  inhibition of phosphorylation of ERK1/2, no washout: complete inhibition
[8]; SW780, 100 nM, 30 min
  phospho-ERK1/2 after extensive drug washout: restoration
[8]; SW780, 1000 nM, 30 min
  phospho-ERK1/2 after extensive drug washout: essential full inhibition
[8]; SW780, 120 minutes exposure, 100 nM, with and without washout
  reversible or irreversible inhibition of FGFR3 in cells: reversible
[9]
  % Conversion to FGFR1 (C584S) covalent adduct after 120 minutes incubation: 8%
[5]; read-out: Cellular Anti-proliferative IC50, SW780
  IC50: 11 nM

From patent publication US11192890B2, “FGFR kinase inhibitors and pharmaceutical uses” (AUCKLAND UNISERVICES LIMITED, priority 2017, dated 2021)
